Assay results published in US3937838A, “Orally active bronchospasmolytic compounds and their preparation” (priority 1966, dated 1976).
Entries after “also recorded” stand apart in the source; their conditions may differ. Read-outs that look alike come from different tables or passages of the source.

What was measured:
bronchial asthma = assay: Clinical study in asthmatic patients (Example 6); type: in vivo, human
Protocol: All the patients were hospitalized for severe bronchial asthma. Before the patients were selected for the trial, spirometry was performed before and after isoprenaline inhalations to make sure that their obstruction was at least partly reversible by bronchodilating drugs. The tests were performed when the patients were in a relatively steady state of moderate asthmatic discomfort. Every morning during the trial control measurements of forced expiratory volume in one second (FEV1.0) were made. These values had to be less than 70% of the predicted normal value taking in consideration sex, age and heights. All the patients were under treatment of different drugs for their asthma. Other bronchodilating drugs were withdrawn at least 6 hours before the start of the measurements. Most of the patients were treated with steroids, antibiotics and expectorants before the start of the trial. This regimen was continued unchanged during the trial period.
Twenty-four took part in the study, 10 male and 14 female. Average age was 51 years (range 15-71 years), mean body weight 64 kg (range 44-88 kg.) and height 166 cm (range 150-187 cm).
The trial was performed as a double blind study during three consecutive days with the patients serving as their own control. […] The order of treatment was randomized according to the principle of Latin squares.
Lung function tests were made immediately before the administration of the tablets and after 1, 2, 3, 5 and 7 hours. FEV1.0 was measured using a Vitalograph spirometer. The highest value of three measurements on each occasion was used in the calculations. All the patients had been trained to perform the tests the day before the start of the trial. After 3 and 7 hours, the patients were questioned for side effects. The same, specially trained, nurse assisted throughout the whole investigation.
The "Student's" t-test was used for statistical evaluation of the results. The degree of significance for the differences is given as almost significant (p<0.05^x) significant (p<0.01^xx) and highly significant (p<0.001^xxx).

adrenergic receptors = details: cited from earlier work
[1] = system: right auricle from the guinea pig; assay: Dual preparation test in vitro, effect on auricle (Example 5c); details: slow infusion, FIGS. 2-4; for cardiac stimulation in relation to bronchodilator effect: both preparations in same bath
Description: [This procedure is more fully described below in Example 5 (b)].
FIG. 2 illustrates the effect of epinephrine (EPE) and terbutaline on spirally cut trachea and right auricle from the guinea pig. Both preparations are dissected out from the same animal and run under identical experimental conditions;
Both preparations are dissected out from the same animal, and run under identical experimental conditions;
Both preparations are dissected out from the same animal and run under identical experimental conditions;
The relation between the heart stimulatory effect and bronchodilator effect was studied in vitro on auricle-trachea-preparation from the guinea pig in order to compare the effect on the heart and the effect on the bronchial muscle under identical experimental conditions. Both spontaneously bearing auricle and spirally-cut trachea were placed in the same bath in Krebs solution. Both preparations were taken from the same animal.
The compound to be tested was slowly infused into the bathing solution and the tension was measured for each of the auricle and trachael preparations.
In carrying out this dual preparation test, epinephrine was used as a reference. […] Infusion of epinephrine was made over a period of ten minutes. After washing and recovery, the test solution was infused in the same manner and the effect of the test compound was compared with the effect of epinephrine.
Referring more specifically to FIG. 2, the upper portion of each chart thereof represents the tension continuously recorded of the auricle preparation (shaded area 1 for the effect of epinephrine on the auricle, ref. no. 2 for the effect of terbutaline infused at a rate of 0.2 μg/min on the auricle, and ref. no. 3 for the effect of terbutaline infused at a rate of 0.375μg/min on the auricle).

[2] = system: bronchoconstriction by histamine aerosol; assay: Protecting effect against histamine aerosol in guinea pigs (Example 15); type: in vivo, guinea pig; details: Cavia porcellus, read-out: ED50 (protecting 50 percent of the animals for more than 4 minutes)
Description: Male guinea pigs (200--300 g) were used. Bronchoconstriction was produced by letting the animals inhale a histamine aerosol.

guinea pig trachea = assay: Bronchospasmolytic effect in vitro (Example 13); details: per se
Protocol: The trachea from a guinea pig was dissected out and spirally cut. It was mounted in a water-jacketed bath (37°C.) in Krebs solution and aerated with oxygen (95%) and carbon dioxide (5%). Pilocarpine (2 μg/ml) was added. The load was adjusted to about 2 g and relaxations in the trachea were recorded by means of a Grass force displacement transducer and a Grass polygraph model 5 (see Example 5 above). The cumulative method was used (-)-Epinephrine was used as reference. The comparisons presented in Table 7 are based on ED50 -values.

[3] = system: isolated guinea pig heart; assay: Effect on isolated heart from guinea pig, Langendorff (Example 16); details: per se
Protocol: The isolated guinea pig heart was perfused according to Langendorff. The method used is described by Anden et al. [Acta Pharmacol. et Toxicol. 21, 247, (1964)]. Contractions in the heart were recorded by a force displacement transducer and a Grass polygraph model 5. The recovery of the heart was tested with (-) epinephrine between every dose of the substance tested. Terbutaline was used as reference.

mice = assay: Toxicity study in mice (Example 18); type: in vivo; details: mouse, in vivo, po
Protocol: (§1) The toxicity was studied in mice (NMRI, male, 18-28 g) 24 hours after i.v. and oral administration. The animals were observed during five days. No further deaths occurred.

[4] = Toxicity study in mice (Example 18); type: in vivo; details: mouse, in vivo, read-out: LD 50 + Standard error
Protocol: as §1

[5] = system: sphincter of Oddi (choledochoduodenal sphincter); assay: Effect on sphincter of Oddi (Example 5e); type: in vivo, cat; details: anesthetized cats; for duodenal pressure / motility / heart rate: concurrent with sphincter effect; for common bile duct pressure / sphincter relaxation: i.v., 1 μg/kg terbutaline in FIG. 7, FIG. 8
Protocol: The effect of terbutaline on the choledochoduodenal sphincter of young, healthy cats was studied. Young animals weighing at least 2.0 kg were used. After being deprived of food but not water for 24 hours, they were anesthetized with pentobarbitol (40 mg/kg i.p.). The terminal portion of a common bile duct was isolated and cannulated toward the duodenum. The hepatic part of the bile duct was drained to prevent distention. The pressure was continuously recorded by the open tip technique. Details of the experimental set up have been published by Liedberg and Halabi [Acta. Chir. Scand. 136 (1970) page 208.] Heart rate was recorded on all experiments and blood pressure by arterial cannulation in some.
Referring to the upper curve of FIGS. 7 and 8, the heart rate is continuously recorded. Concurrent records are made in the middle curve and lower curve of the pressures measured respectively in the common bile duct and in the lower duodenum.
As a control in this test, the animal was also treated with 0.5 international units per kg of cholecystokinin (CCK).
In a second test of the effect of terbutaline and isoprenaline on the sphincter (see FIG. 8), the duodenal motility was measured without being affected by CCK.

isolated rabbit heart = assay: Effect on isolated heart, Langendorff preparation (Example 5d); details: injection; FIG. 5
Protocol: The effect of the compound of the present invention was also studied on isolated rabbit heart (Langendorff preparation) the method used as described by Anden et al. (Acta Pharmacol. et Toxicol., 21 (1964) page 247). In this procedure, the isolated heart is mounted in a Krebs solution and the test compound is injected into it. Measurements are continuously recorded of the rate and force of contraction.
The tests using epinephrine establish a standard of comparison to evaluate subsequent test compounds in the same preparation.

In the case of CC(C)NCC(O)c1cc(O)cc(O)c1 (stereo not shown) [orciprenaline, 1-(3',5'-dihydroxyphenyl)-2-(isopropylamino)-ethanol, reference compound], the “time of maximal response (FEV1.0)” value (bronchial asthma; oral single dose) is given as 2 h, the “increase of FEV1.0” value (bronchial asthma; oral, terbutaline 5.0 mg, orciprenaline 20 mg, FIG. 9) is given as “clearcut increase of the spirometric values” and the bronchodilator potency (adrenergic receptors; background, versus previously used bronchodilators) is given as “less potency than previously used bronchodilators”. The “cardiac stimulation in relation to bronchodilator effect” value (“cardiac stimulation in relation” for short) [1] was “strong cardiac stimulants in relation to their bronchodilator effect”.
In the case of CC(C)(C)NCC(O)c1cc(OC(=O)C(C)(C)C)cc(OC(=O)C(C)(C)C)c1 (stereo not shown) [KWD2085], the ED50 ([2]; 0.5 h, oral, 30 minutes before histamine) is reported as 0.24 mg/kg, the ED50 ([2]; ip, 0.25 h, i.p., 15 minutes before histamine) is reported as 0.13 mg/kg and the “bronchospasmolytic effect in vitro relative to terbutaline” value (guinea pig trachea) is reported as “weaker bronchospasmolytic effect in vitro than terbutaline”. The “direct heart effect relative to terbutaline” value [3] was “much less direct heart effect”, the “oral absorption in comparison with terbutaline” value (mice) was “improved oral absorption in comparison with terbutaline” and the LD50 at 24 h ([4]; iv) was 23 ± 2 mg/kg. For the same molecule, the LD50 at 24 h ([4]; po) was 2200 mg/kg.
For cholecystokinin [reference compound], the “duodenal pressure / motility” value [5] was “markedly stimulated the duodenum” and the “common bile duct pressure / sphincter relaxation” value [5] was “relaxed the sphincter”.
For CC(C)NCC(O)c1ccc(O)c(O)c1 (stereo not shown) [isoprenaline, 1-(3',4'-dihydroxyphenyl)-2-(isopropylamino)-ethanol, reference compound], the adrenergic receptors stimulated (adrenergic receptors; background) is given as “stimulates β1 and β2 -receptors equally”, the “duration of bronchodilator activity” value (adrenergic receptors; background) is given as “relatively short-lived” and the cardiovascular side effects (adrenergic receptors) is given as “cardiovascular stimulation, especially tachycardia”. The “cardiac stimulation in relation” value [1] was “strong cardiac stimulants in relation to their bronchodilator effect”, the “duodenal pressure / motility” value [5] was “inhibited duodenal motility” and the heart rate [5] was “marked tachycardia”. For the same molecule, the “duodenal pressure / motility” value ([5]; listed as Isoprenaline) was “differed markedly from terbutaline in its effect on heart rate and intestinal activity”, the heart rate ([5]; listed as Isoprenaline) was “differed markedly from terbutaline in its effect on heart rate and intestinal activity” and the “common bile duct pressure / sphincter relaxation” value [5] was “reduces common bile duct pressure”.
In the case of CNC(C)C(O)c1ccccc1 (stereo not shown) [Ephedrine, 1-phenyl-2-(methylamino)propanol], the cardiovascular side effects (adrenergic receptors; background) is given as “palpitations and tachycardia” and the CNS side effects (adrenergic receptors; background, oral) is given as “anxiety and sleeping disturbances”.
In the case of CNCC(O)c1ccc(O)c(O)c1 (stereo not shown) [epinephrine, 1-(3',4'-dihydroxyphenyl)-2-(methylamino)-ethanol], the adrenergic receptors stimulated (adrenergic receptors; background) is listed as “stimulates α- and β1 - as well as β2 -receptors”, the cardiovascular side effects (adrenergic receptors; background) is listed as “tachycardia, increased cardiac output and sometimes an increase in blood pressure” and the “duration of bronchodilator activity” value (adrenergic receptors; background) is listed as “relatively short-lived”. The “cardiac stimulation in relation” value [1] was “affecting both the auricle and tracheal preparations over the concentration range tested”, the “cardiac stimulation in relation” value ([1]; listed as Epinephrine) was “bronchodilation and heart muscle stimulation in the same concentration range” and the “effect on auricle (tension)” value ([1]; 0.375 μg/min where stated) was “nearly doubled the maximum tension of the auricle”. For the same molecule, the “effect on rate and force of isolated heart” value (isolated rabbit heart) was “increase in the heart rate; also recorded: increase in the force of contraction; also recorded: readily observable”.
